The test has as its system caspase-9 and -6. Briefly: Fluorometric caspase-6/9 activity assay in CEM cells. Type of test: cell-based, human. As to conditions: cisplatin 2 µg/ml alone, Fig. 5a. The protocol:
• (a) P693 and CEM cells were treated with cisplatin (2 µg/ml) in the absence or presence of DEX (1 µM) as indicated. 24 and 48 h following treatment cells were lysed and caspase-9 activity was determined using a fluorescent caspase-9 assay and spectroscopy. • (b) P5 and CEM cells were treated as described above. 24 h after stimulation Apaf-1 was immunoprecipitated from the cell extracts using a […]. Aliquotes of the precipitates were separated by three different gels and analysed by Western blotting using rabbit polyclonal Apaf-1, mAb cytochrome c or caspase-9 antibodies. The antibody heavy chain band (IgGH) ensures equal conditions. […]
• (A) Cell culture. […] The mice were given 0.28 mg/L DEX in drinking water, and the amount of water consumed was monitored. […] The tumour volumes were measured using callipers, and calculated using, as an approximation, the formula for volume of a hemi-ellipsoid: π(width^2 x length)/6. […] Early apoptotic changes were identified by staining of cells with fluoresceinthiocyanate (FITC)-conjugated annexin V and propidium iodide (Becton Dickinson, Heidelberg, Germany) and analysed by flow cytometry (FACScan, Becton Dickinson) as described (Herr et al., EMBO J. 16 (1997), 6200-6208) • (E) Immunohistochemistry. […] Bound antibodies were detected by FITC conjugated anti-mouse or anti-rabbit IgG (Molecular Probes Europe, Leiden, The Netherlands). […]

As for `N.N.[Cl][Pt][Cl]` [cisplatin], the caspase-6/9 activity result is “induced 24 h following cisplatin in P693 and CEM cells with increasing activity at 48 h”.

Source of the values: EP1283052A1, “Pharmaceutical composition containing caspase-8 and /or caspase-9 useful for overcoming glucocorticoid- and cancer therapy-induced apoptosis of tumours” (Deutsches Krebsforschungszentrum Stiftung des öffentlichen …, priority 2001, dated 2003).
